Source: patent publication US20230257393A1, “MACROMOLECULE-SUPPORTED THIENOAZEPINE COMPOUNDS, AND USES THEREOF” (BOLT BIOTHERAPEUTICS, INC., priority 2020, published 2023)

How the values were obtained:
human TLR8 = target: T1, human TLR8 (Homo sapiens, UniProt Q9NR97); assay: HEK Reporter Assay, HEK293 NFKB reporter cells expressing human TLR8; type: cell-based; conditions: Table 1c, read-out: HEK293 hTLR8 EC50
T1 construct: host or cells: HEK293 reporter cells
T1 sequence (Q9NR97 27-1041): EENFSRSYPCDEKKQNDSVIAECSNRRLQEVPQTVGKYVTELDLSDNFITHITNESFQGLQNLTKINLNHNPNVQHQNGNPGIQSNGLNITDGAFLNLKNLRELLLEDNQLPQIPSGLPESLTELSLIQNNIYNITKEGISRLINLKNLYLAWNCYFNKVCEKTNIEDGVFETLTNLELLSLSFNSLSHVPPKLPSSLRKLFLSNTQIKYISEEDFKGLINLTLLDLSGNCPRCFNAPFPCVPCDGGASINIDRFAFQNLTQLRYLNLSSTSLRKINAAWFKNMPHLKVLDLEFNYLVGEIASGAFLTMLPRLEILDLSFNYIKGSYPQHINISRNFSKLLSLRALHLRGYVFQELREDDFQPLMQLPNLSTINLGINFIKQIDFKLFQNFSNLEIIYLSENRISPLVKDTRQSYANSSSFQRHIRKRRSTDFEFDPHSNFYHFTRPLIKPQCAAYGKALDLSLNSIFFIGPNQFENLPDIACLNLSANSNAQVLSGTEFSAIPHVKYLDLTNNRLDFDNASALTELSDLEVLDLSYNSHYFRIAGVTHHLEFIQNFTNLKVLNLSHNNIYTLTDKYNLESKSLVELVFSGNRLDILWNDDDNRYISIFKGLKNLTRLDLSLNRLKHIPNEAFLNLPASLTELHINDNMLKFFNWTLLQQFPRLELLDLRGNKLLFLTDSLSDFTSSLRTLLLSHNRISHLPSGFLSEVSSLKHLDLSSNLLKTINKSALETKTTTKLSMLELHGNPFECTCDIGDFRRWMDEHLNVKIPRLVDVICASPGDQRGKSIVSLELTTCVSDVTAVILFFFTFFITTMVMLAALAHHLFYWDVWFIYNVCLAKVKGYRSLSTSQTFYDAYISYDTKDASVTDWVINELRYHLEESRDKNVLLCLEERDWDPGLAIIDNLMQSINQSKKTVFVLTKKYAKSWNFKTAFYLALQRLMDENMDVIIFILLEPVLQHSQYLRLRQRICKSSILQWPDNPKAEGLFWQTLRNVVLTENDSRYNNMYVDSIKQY
Experimental: (§1) Each compound was synthesized, purified, and characterized by mass spectrometry and shown to have the mass indicated. Additional experimental procedures are found in the Examples. Activity against HEK293 NFKB reporter cells expressing human TLR7 or human TLR8 was measured according to Example 202.
(§2) HEK293 reporter cells expressing human TLR7 or human TLR8 were purchased from Invivogen and vendor protocols were followed for cellular propagation and experimentation. Briefly, cells were grown to 80-85% confluence at 5% CO2 in DMEM supplemented with 10% FBS, Zeocin, and Blasticidin. Cells were then seeded in 96-well flat plates at 4×10^4 cells/well with substrate containing HEK detection medium and immunostimulatory molecules. Activity was measured using a plate reader at 620-655 nm wavelength.

human TLR7 = target: T2, human TLR7 (Homo sapiens, UniProt Q9NYK1); assay: HEK Reporter Assay, HEK293 NFKB reporter cells expressing human TLR7; type: cell-based; conditions: Table 1c, read-out: HEK293 hTLR7 EC50
T2 construct: host or cells: HEK293 reporter cells
T2 sequence (Q9NYK1 27-1049): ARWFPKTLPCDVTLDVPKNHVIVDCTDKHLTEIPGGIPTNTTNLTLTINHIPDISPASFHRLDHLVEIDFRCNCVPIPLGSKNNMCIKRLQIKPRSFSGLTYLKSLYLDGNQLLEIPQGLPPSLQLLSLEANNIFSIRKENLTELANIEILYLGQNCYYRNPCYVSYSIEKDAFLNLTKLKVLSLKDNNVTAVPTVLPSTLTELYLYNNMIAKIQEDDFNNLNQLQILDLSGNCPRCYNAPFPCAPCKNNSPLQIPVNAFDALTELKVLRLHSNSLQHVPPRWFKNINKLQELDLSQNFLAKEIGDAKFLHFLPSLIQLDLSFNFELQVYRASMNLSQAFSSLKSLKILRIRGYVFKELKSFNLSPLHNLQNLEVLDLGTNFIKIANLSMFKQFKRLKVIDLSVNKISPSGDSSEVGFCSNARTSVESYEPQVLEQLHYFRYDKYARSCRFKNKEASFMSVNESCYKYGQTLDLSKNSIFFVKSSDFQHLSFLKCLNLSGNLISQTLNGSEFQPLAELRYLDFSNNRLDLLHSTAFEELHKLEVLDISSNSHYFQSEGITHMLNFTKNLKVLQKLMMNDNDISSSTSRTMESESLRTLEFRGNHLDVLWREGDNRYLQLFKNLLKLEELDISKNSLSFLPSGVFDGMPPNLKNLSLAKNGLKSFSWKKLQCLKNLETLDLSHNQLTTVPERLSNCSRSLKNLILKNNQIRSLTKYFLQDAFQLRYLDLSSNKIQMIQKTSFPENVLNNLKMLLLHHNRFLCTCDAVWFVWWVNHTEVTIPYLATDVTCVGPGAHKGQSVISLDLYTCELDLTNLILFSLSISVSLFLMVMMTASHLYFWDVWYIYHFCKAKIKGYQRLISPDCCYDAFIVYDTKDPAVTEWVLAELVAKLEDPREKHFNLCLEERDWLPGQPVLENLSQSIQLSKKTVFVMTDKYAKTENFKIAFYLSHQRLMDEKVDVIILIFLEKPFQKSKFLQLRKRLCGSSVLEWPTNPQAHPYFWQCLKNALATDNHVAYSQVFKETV
Experimental: as §1, §2

Compound	EC50 (human TLR8) [µM]	EC50 (human TLR7) [µM]
CCCN(OCC)C(=O)C1=Cc2sc(CN3CC4(CNC4)C3)cc2N=C(N)C1 [TAZ-207]	≥ 9	≥ 9
CCCN(OCC)C(=O)C1=Cc2sc(CN3C[C@H]4C[C@@H]3CN4)cc2N=C(N)C1 [TAZ-235]	3.05	4.57
CCONC(=O)C1=Cc2sc(CC3CNC3)cc2N=C(N)C1 [TAZ-250]	≥ 9	≥ 9

Results, then the compound that gave them:

EC50 (human TLR8) [µM]	EC50 (human TLR7) [µM]	Compound
≥ 9	≥ 9	CCCN(OCC)C(=O)C1=Cc2sc(CN3CCN(c4ccc(C(=O)OC(C)(C)C)cc4)CC3)cc2N=C(N)C1 [TAZ-205]
4.43	0.436	CCCN(OCC)C(=O)C1=Cc2sc(CN3CCCN(C(=O)OC(C)(C)C)CC3)cc2N=C(N)C1 [TAZ-226]
≥ 9	≥ 9	CCCN(OCC)C(=O)C1=Cc2sc(CN3CCC(c4ccc(C(=O)OC)cc4)CC3)cc2N=C(N)C1 [TAZ-229]
